Square brackets hold non-standard residues; d marks the D form. Peptide text beside a SMILES is read from it. * marks the point of attachment. Ala(6-iPr-benzothiazol-2-yl) = CC(C)c1ccc2nc(C[C@H](N)C(=O)O)sc2c1; 2Nal = N[C@@H](Cc1ccc2ccccc2c1)C(=O)O; Moc = COC(=O)*
Target: DCN1 (Homo sapiens (Human), UniProt Q96GG9)
Experiment: Competitive FP binding assay
Conditions: bounds given in μM; read-out: Binding affinity to DCN1 (IC50)
In short: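 FP competition with DCN1 in 100 mM phosphate pH 6.5, 0.02% Tween-20, 2% DMSO, probe 5 nM final. Equilibrated 30 min at room temperature with shaking. DCN1 was His6-tagged (uncleaved), expressed in E. coli Rosetta2 and purified by Ni-NTA and gel filtration.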

DCN1, sequence (Q96GG9 58-259): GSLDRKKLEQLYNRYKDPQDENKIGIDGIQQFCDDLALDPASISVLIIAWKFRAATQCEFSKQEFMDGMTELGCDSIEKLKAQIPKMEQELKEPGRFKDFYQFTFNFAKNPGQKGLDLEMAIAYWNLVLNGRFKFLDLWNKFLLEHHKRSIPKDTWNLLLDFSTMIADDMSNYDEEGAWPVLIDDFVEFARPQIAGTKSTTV

`CCC(=O)N[C@@H](Cc1nc(C)c(-c2cccnc2)s1)C(=O)N[C@H](CN)Cc1ccccc1` [Example 229] and `CCC(=O)N[C@@H](Cc1nc(C)c(-c2ccccc2Cl)s1)C(=O)N[C@H](CN)Cc1ccccc1` [Example 104] cannot be ordered by IC50: over 10 µM for the first, over 10 µM for the second.

`CC[C@H](C)[C@H](NC(=O)[C@H](Cc1ccc2ccccc2c1)NC(=O)OC)C(=O)N[C@@H](CCCCN)C(=O)N[C@@H](CC(C)C)C(N)=O` [Example 170] (Moc-[2Nal]IKL-NH2) and `CCC(=O)N[C@@H](Cc1cccc(C)n1)C(=O)N[C@H](C(=O)N[C@@H](CCCCN)C(=O)NC(c1ccccc1)c1ccccc1)[C@@H](C)CC` [Example 134] cannot be ordered by IC50: over 10 µM for the first, over 10 µM for the second.

`CCC(=O)N[C@@H](Cc1nc(C)c(C(C)C)s1)C(=O)N[C@H](CN)Cc1ccccc1` [Example 99] and `CCC(=O)N[C@@H](Cc1nc(C)n(C(C)C)n1)C(=O)N[C@H](CN)Cc1ccccc1` [DI-533] cannot be ordered by IC50: over 10 µM for the first, over 10 µM for the second.

`CCC(=O)N[C@@H](Cc1nc2ccc(Cl)cc2s1)C(=O)NCc1ccccn1` [Example 251] and `CCC(=O)N[C@H](CNC(=O)[C@H](N)C1CCCC1)Cc1nc2ccc(Cl)cc2s1` [Example 261] cannot be ordered by IC50: over 5 µM for the first, over 5 µM for the second.

`CCC(=O)N[C@@H](Cc1ccc2ccccc2c1)C(=O)N[C@H](C(=O)N[C@@H](CCCCN)C(=O)N[C@@H](CN)c1ccccc1)C1CCCC1` [Example 151] and `CCC(=O)N[C@@H](Cc1ccc(C)cn1)C(=O)N[C@H](C(=O)N[C@@H](CCCCN)C(=O)NC(c1ccccc1)c1ccccc1)[C@@H](C)CC` [Example 135] cannot be ordered by IC50: over 10 µM for the first, over 10 µM for the second.

Work on `CCC(=O)N[C@@H](Cc1nc2ccc(C)cc2s1)C(=O)N[C@H](C(=O)N[C@@H](CCCCN)C(=O)N[C@@H]1CCOc2ccccc21)C1CCNCC1` [Example 180] yielded an IC50 of over 1 µM.

Same assay, conditions: read-out: Binding affinity to DCN1 (IC50 (nM))

First: CCC(=O)N[C@@H](Cc1cn2cc(Cl)ccc2n1)C(=O)N[C@H](C(=O)N[C@@H](CCCCN)C(=O)N[C@@H]1CCOc2ccccc21)C1CCOCC1 [Example 208]
Second: CCC(=O)N[C@@H](Cc1cn2cc(Cl)ccc2n1)C(=O)N[C@H](C(=O)N[C@@H](CCCCN)C(=O)N[C@@H]1CCOc2ccccc21)C1CCCC1 [Example 212]
The IC50 of the first is 2.8-fold higher: 0.157 µM for the first, 0.0556 µM for the second.

Compared with `CCC(=O)N[C@@H](Cc1nc2ccc(C(C)C)cc2s1)C(=O)N[C@H](CN1CCOCC1)C1CCCCC1` [Example 80, (S)—N—((S)-1-cyclohexyl-2-morpholinoethyl)-3-(6-isopropylbenzo[d]thiazol-2-yl)-2-propionamidopropanamide], `CCC(=O)N[C@@H](Cc1nc2ccc(C(C)C)cc2s1)C(=O)N[C@H](CNC(=O)CN1CCOCC1)C1CCCCC1` [Example 57, (S)—N—((S)-1-cyclohexyl-2-(2-morpholinoacetamido)ethyl)-3-(6-isopropylbenzo[d]thiazol-2-yl)-2-propionamidopropanamide] is 2.2-fold lower in IC50: 0.157 µM for the first, 0.0704 µM for the second.

First: CCC(=O)N[C@@H](Cc1nc2cc(Cl)ccc2s1)C(=O)N[C@H](C(=O)N[C@@H](CCCCN)C(=O)NC(c1ccccc1)c1ccccc1)[C@@H](C)CC [Example 153]
Second: CCC(=O)N[C@@H](Cc1nc2ccc(C)cc2s1)C(=O)N[C@H](C(=O)N[C@@H](CCCCN)C(=O)NC(c1ccccc1)c1ccccc1)C1CCCC1 [Example 173]
The IC50 of the first is 33-fold higher: 1.9 µM for the first, 0.0581 µM for the second.

`CCC(=O)N[C@@H](Cc1nc2ccc(C(C)C)cc2s1)C(=O)N[C@H](CNC(=O)CCCN1CCOCC1)C1CCCCC1` [Example 59, N—((S)-2-cyclohexyl-2-((S)-3-(6-isopropylbenzo[d]thiazol-2-yl)-2-propionamidopropanamido)ethyl)-4-morpholinobutanamide] and `CCC(=O)N[C@@H](Cc1nc2ccc(C(C)C)cc2s1)C(=O)N[C@H](CNC(=O)C1CCN(CCO)CC1)C1CCCCC1` [Example 72] are within 1.5-fold of each other in IC50: 0.0631 µM for the first, 0.0659 µM for the second.

First: CCC(=O)N[C@@H](Cc1nc2ccc(CC)cc2s1)C(=O)N[C@H](C(=O)N[C@@H](CCCCN)C(=O)NC(c1ccccc1)c1ccccc1)C1CCCC1 [Example 174]
Second: CCC(=O)N[C@@H](Cc1nc2ccc(F)cc2s1)C(=O)N[C@H](C(=O)N[C@@H](CCCCN)C(=O)NC(c1ccccc1)c1ccccc1)C1CCCC1 [Example 28]
The IC50 of the first is 5.3-fold lower: 0.0775 µM for the first, 0.413 µM for the second.

Compared with `CC[C@H](C)[C@@H](CN)NC(=O)[C@H](Cc1nc2ccc(C(C)C)cc2s1)NC(=O)NC` [Example 52, (S)—N-((2S,3S)-1-amino-3-methylpentan-2-yl)-3-(6-isopropylbenzo[d]thiazol-2-yl)-2-(3-methylureido)propanamide], `CCC(=O)N[C@@H](Cc1nc2ccc(C(C)C)cc2s1)C(=O)N[C@H](CN)[C@@H](C)CC` [Example 47, (S)—N-((2S,3S)-1-amino-3-methylpentan-2-yl)-3-(6-isopropylbenzo[d]thiazol-2-yl)-2-propionamidopropanamide] is 5.9-fold lower in IC50: 0.558 ± 0.125 µM for the first, 0.095 ± 0.0158 µM for the second.

Compared with `CCC(=O)N[C@@H](Cc1nc2cccc(Cl)c2s1)C(=O)N[C@H](C(=O)N[C@@H](CCCCN)C(=O)NC(c1ccccc1)c1ccccc1)C1CCCC1` [Example 31], `CCC(=O)N[C@@H](Cc1ccc2ccccc2c1)C(=O)N[C@H](C(=O)N[C@@H](CCCCN)C(=O)N[C@H](CN)c1ccccc1)C1CCCC1` [Example 150] is 15-fold higher in IC50: 0.137 µM for the first, 2 µM for the second.

Compared with `CCC(=O)N[C@@H](Cc1nc2ccc(CC)cc2s1)C(=O)N[C@H](C(=O)N[C@@H](CCCCN)C(=O)N[C@@H]1CCOc2ccccc21)C1CCOCC1` [Example 186], `CCC(=O)N[C@@H](Cc1nc2ccc(C)cc2o1)C(=O)N[C@H](C(=O)N[C@@H](CCCCN)C(=O)N[C@@H]1CCOc2ccccc21)C1CCOCC1` [Example 194] is 1.8-fold lower in IC50: 0.169 µM for the first, 0.0938 µM for the second.

Compared with `CCC(=O)N[C@@H](Cc1ccc2ccccc2c1)C(=O)N[C@H](C(=O)N[C@@H](CCCCN)C(=O)N[C@H]1CCc2ccccc21)[C@@H](C)CC` [Example 14], `CCC(=O)N[C@@H](Cc1ccc2ccccc2c1)C(=O)N[C@H](C(=O)N[C@@H](CCCCN)C(=O)N[C@H]1CCOc2ccccc21)[C@@H](C)CC` [Example 18] is 1.6-fold higher in IC50: 1.93 µM for the first, 3.05 µM for the second.

First: CCC(=O)N[C@@H](Cc1nc2ccc(C(C)C)cc2s1)C(=O)N[C@H](CNC(=O)c1cn(C)cn1)C1CCCCC1 [Example 66]
Second: CCC(=O)N[C@@H](Cc1nc2ccc(C(C)C)cc2s1)C(=O)N[C@H](CO)C1CCCCC1 [Example 81, (S)—N—((S)-1-cyclohexyl-2-hydroxyethyl)-3-(6-isopropylbenzo[d]thiazol-2-yl)-2-propionamidopropanamide]
The IC50 of the first is 2.4-fold higher: 0.299 µM for the first, 0.127 µM for the second.

Going from `CCC(=O)N[C@@H](Cc1nc2ccc(C)cc2s1)C(=O)N[C@H](CN)[C@@H](C)CC` [Example 214] to `CCC(=O)N[C@@H](Cc1nc2ccc(C(C)C)cc2s1)C(=O)N[C@H](CN)Cc1ccccc1` [Example 55, (S)—N—((S)-1-amino-3-phenylpropan-2-yl)-3-(6-isopropylbenzo[d]thiazol-2-yl)-2-propionamidopropanamide], the IC50 falls from 0.491 µM to 0.179 µM (2.7-fold). The second is the more potent here.

First: CC[C@H](C)[C@H](NC(=O)[C@H](Cc1nc2ccc(C(C)C)cc2s1)NC(C)=O)C(=O)N[C@@H](CCCCN)C(=O)N[C@@H](CC(C)C)C(N)=O [Example 5, (S)-2-((2S,3 S)-2-((S)-2-acetamido-3-(6-isopropylbenzo[d]thiazol-2-yl)propanamido)-3-methylpentanamido)-6-amino-N—((S)-1-amino-4-methyl-1-oxopentan-2-yl)hexanamide] (Ac-[Ala(6-iPr-benzothiazol-2-yl)]IKL-NH2)
Second: CCC(=O)N[C@@H](Cc1nc2ccc(C)cc2s1)C(=O)N[C@@H](C[C@H]1CC[C@H](CN)CC1)C(=O)N[C@@H](CCCCN)C(=O)N[C@@H]1CCOc2ccccc21 [Example 185]
The IC50 of the first is 2.8-fold lower: 0.0401 µM for the first, 0.111 µM for the second.

First: CCC(=O)N[C@@H](Cc1nc2ccc(Cl)cc2s1)C(=O)N[C@H](CN)C1CCCCC1 [Example 217]
Second: CCC(=O)N[C@H](CNC(=O)[C@@H](N)C1CCCC1)Cc1nc2ccc(Cl)cc2s1 [Example 260]
The IC50 of the first is 3.5-fold lower: 0.346 µM for the first, 1.2 µM for the second. The first is the more potent here.

First: CCC(=O)N[C@@H](Cc1nc2ccc(C(C)C)cc2s1)C(=O)N[C@H](C(=O)NCCN1CCOCC1)C1CCN(C(=O)OC(C)(C)C)CC1 [Example 264]
Second: CCC(=O)N[C@@H](Cc1nc2ccc(C(C)C)cc2s1)C(=O)N[C@H](CNC(=O)C1CCN(CC)CC1)C1CCCCC1 [Example 70]
The IC50 of the first is 33-fold higher: 1.5 µM for the first, 0.0451 µM for the second.

First: CCC(=O)N[C@@H](Cc1nc2ccc(C(C)C)cc2s1)C(=O)N[C@H](CNC(=O)C1CCNCC1)C1CCCCC1 [Example 62, N—((S)-2-cyclohexyl-2-((S)-3-(6-isopropylbenzo[d]thiazol-2-yl)-2-propionamidopropanamido)ethyl)piperidine-4-carboxamide]
Second: CCC(=O)N[C@@H](Cc1nc2ccc(C(C)C)cc2s1)C(=O)N[C@H](CNC(=O)C1CCN(C(C)C)CC1)C1CCCCC1 [Example 71]
The IC50 of the first is 4.2-fold lower: 0.0259 µM for the first, 0.11 µM for the second. The first is the more potent here.

Compared with `CCC(=O)N[C@@H](Cc1ccc2ccccc2c1)C(=O)N[C@H](C(=O)N[C@@H](CCCCN)C(=O)N[C@@H]1CCOc2c(Cl)cccc21)C1CCCC1` [Example 166], `CCC(=O)N[C@@H](Cc1ccc2ccccc2c1)C(=O)N[C@H](C(=O)N[C@@H](CCCCN)C(=O)NC(c1ccc(F)cc1)c1ccc(F)cc1)C1CCCC1` [Example 138] is 9.1-fold higher in IC50: 0.193 µM for the first, 1.75 µM for the second.

First: CCC(=O)N[C@H](CNC(=O)C1(N)CCCCC1)Cc1nc2ccc(Cl)cc2s1 [Example 119]
Second: CCC(=O)N[C@H](CNC(=O)C1(N)CCC1)Cc1nc2ccc(C(C)C)cc2s1 [Example 113]
The IC50 of the first is 8.6-fold lower: 0.477 µM for the first, 4.11 µM for the second.

First: CCC(=O)N[C@H](CNC(=O)Nc1ccccc1)Cc1nc2ccc(Cl)cc2s1 [Example 258]
Second: CCC(=O)N[C@H](CNC(=O)Cc1ccccc1)Cc1nc2ccc(Cl)cc2s1 [Example 253]
The IC50 of the first is 3.3-fold higher: 3.92 µM for the first, 1.2 µM for the second.

Compared with `CCC(=O)N[C@@H](Cc1nc2ccc(C(C)(C)C)cc2s1)C(=O)N[C@H](CN)Cc1ccccc1` [Example 223], `CCC(=O)N[C@@H](Cc1nc2ccc(Cl)cc2s1)C(=O)N[C@H](C(=O)N[C@@H](CCCCN)C(=O)NC(c1ccccn1)c1ccccn1)C1CCOCC1` [244 & 245] is 3.2-fold lower in IC50: 0.949 µM for the first, 0.297 µM for the second.

`CCC(=O)N[C@@H](Cc1ccc2ccccc2c1)C(=O)N[C@@H](Cc1cccs1)C(=O)N[C@@H](CCCCN)C(=O)NC(c1ccccc1)c1ccccc1` [Example 24] was tested, and the IC50 was 0.967 µM.

Source: patent US12012467B2, “Small molecule DCN1 inhibitors and therapeutic methods using the same” (THE REGENTS OF THE UNIVERSITY OF MICHIGAN, priority 2017, dated 2024)
